Results as given in the supplement of paper PMC10627819.

What was measured:
S. pneumoniae D39V [1] = assay: fitness (endpoint OD595 vs no drug) (fraction); higher = more growth
Summary of the method: (§1)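 In 384-well plates at 37 °C, cultures began at OD595 0.01 in 30 µl, with 55 µl used for S. pneumoniae. OD595 readings every 30 min for 14 h were corrected by the first reading. Fitness divides the stationary-phase transition optical density by the robust mean of no-drug control wells. The result is capped at 1.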

S. pneumoniae D39V [2] = assay: Bliss interaction score (quartile over a dose matrix) (fitness difference); higher = more antagonism (negative = synergy)
Summary of the method: (§2)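 Fitness was OD595 at entry into stationary phase divided by the plate's robust no-drug mean and capped at 1; single-drug fitness was inferred from combination data. The Bliss score is observed minus expected (product) fitness, summarised by quartiles over technical, biological and donor/recipient replicates.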

B. subtilis 168 [3] = assay: as above
Summary of the method: as §2

S. aureus DSM 20231 = assay: as above
Summary of the method: as §2

S. aureus Newman = assay: as above
Summary of the method: as §2

B. subtilis 168 [4] = assay: fitness (endpoint OD595 vs no drug) (fraction); higher = more growth
Summary of the method: as §1
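Throughout, for Bliss interaction score (quartile over a dose matrix): first quartile when negative (synergy) and third quartile when positive (antagonism).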

CC(=O)NC[C@H]1CN(c2ccc(N3CCOCC3)c(F)c2)C(=O)O1 [Linezolid] + CO[C@H]1/C=C/O[C@@]2(C)Oc3c(C)c(O)c4c(O)c(c(/C=N/N5CCN(C)CC5)c(O)c4c3C2=O)NC(=O)/C(C)=C\C=C\[C@H](C)[C@H](O)[C@@H](C)[C@@H](O)[C@@H](C)[C@H](OC(C)=O)[C@@H]1C [Rifampicin]
fitness, S. pneumoniae D39V [1]
Settings | first compound 0.105 µg/mL | first compound 0.2 µg/mL | first compound 0.21 µg/mL | first compound 0.42 µg/mL | first compound 0.8 µg/mL
partner 0.05 µg/mL | – | 0.69 | 0.182 | 0.171 | 0.348
partner 0.1 µg/mL | 0.17 | – | 0.135 | 0.103 | 0.216
partner 0.2 µg/mL | 0.127 | – | 0.0997 | 0.113 | –

fitness, S. pneumoniae D39V [1], one replicate
Settings | first compound 0.2 µg/mL | first compound 0.4 µg/mL | first compound 0.8 µg/mL
partner 0.025 µg/mL | 0.809 | 0.685 | 0.298
partner 0.2 µg/mL | 0 | 0 | 0

Settings | Bliss interaction score
B. subtilis 168 [3] | -0.0404
S. aureus DSM 20231 | -0.0505
S. aureus Newman | -0.0225
S. pneumoniae D39V [2] | -0.0681

CC[C@H](C)[C@H](N)C1=N[C@H](C(=O)N[C@@H](CC(C)C)C(=O)N[C@H](CCC(=O)O)C(=O)N[C@H](C(=O)N[C@H]2CCCCNC(=O)[C@H](CC(N)=O)NC(=O)[C@@H](CC(=O)O)NC(=O)[C@H](Cc3cnc[nH]3)NC(=O)[C@@H](Cc3ccccc3)NC(=O)[C@H]([C@@H](C)CC)NC(=O)[C@@H](CCCN)NC2=O)[C@@H](C)CC)CS1 [Bacitracin] + CCC(C)C1C(=O)NC(=C)C(=O)NC(C(=O)NC(CSCC(C(=O)N1)NC(=O)/C(=C/C)/NC(=O)C(C(C)CC)N)C(=O)NC2C(SCC(NC(=O)CNC(=O)C3CCCN3C2=O)C(=O)NC(CCCCN)C(=O)NC4C(SCC(NC(=O)CNC(=O)C(NC(=O)C(NC(=O)C(NC(=O)CNC4=O)C)CC(C)C)CCSC)C(=O)NC(CC(=O)N)C(=O)NC(CCSC)C(=O)NC(CCCCN)C(=O)NC5C(SCC6C(=O)NC(C(=O)NC(CSC(C(C(=O)N6)NC(=O)C(NC5=O)C)C)C(=O)NC(CO)C(=O)NC(C(C)CC)C(=O)NC(CC7=CN=CN7)C(=O)NC(C(C)C)C(=O)NC(=C)C(=O)NC(CCCCN)C(=O)O)CC8=CN=CN8)C)C)C)CC(C)C [Nisin]
fitness, B. subtilis 168 [4], main component drawn
Settings | first compound 37.5 µg/mL | first compound 75 µg/mL | first compound 150 µg/mL
partner 0.5 µg/mL | 0.78 | 0.711 | 0.516
partner 1 µg/mL | 0.754 | 0.575 | 0.269
partner 2 µg/mL | 0.473 | 0.165 | 0.0302

fitness, B. subtilis 168 [4], one replicate, main component drawn
Settings | partner 1.25 µg/mL | partner 1.6 µg/mL | partner 2.5 µg/mL | partner 3.2 µg/mL | partner 4 µg/mL | partner 5 µg/mL | partner 6.4 µg/mL | partner 8 µg/mL | partner 16 µg/mL
first compound 37.5 µg/mL | 0.807 | 0.409 | 0.293 | 0.0184 | 0.0266 | 0.0118 | 0.0283 | 0.0124 | 0.0057
first compound 75 µg/mL | 0.809 | 0.178 | 0.0249 | 0.0153 | 0.116 | 0.0085 | 0.0276 | 0.0348 | 0.0088
first compound 150 µg/mL | 0.611 | 0.0142 | 0.0156 | 0.0131 | 0.0334 | 0.0106 | 0.0205 | 0.0221 | 0.0151

main component drawn
Settings | Bliss interaction score
B. subtilis 168 [3] | -0.191
S. aureus DSM 20231 | -0.0406
S. aureus Newman | 0.112
S. pneumoniae D39V [2] | -0.0689

CC[C@H](C)[C@H](N)C1=N[C@H](C(=O)N[C@@H](CC(C)C)C(=O)N[C@H](CCC(=O)O)C(=O)N[C@H](C(=O)N[C@H]2CCCCNC(=O)[C@H](CC(N)=O)NC(=O)[C@@H](CC(=O)O)NC(=O)[C@H](Cc3cnc[nH]3)NC(=O)[C@@H](Cc3ccccc3)NC(=O)[C@H]([C@@H](C)CC)NC(=O)[C@@H](CCCN)NC2=O)[C@@H](C)CC)CS1 [Bacitracin] + CN(C)C(=O)C(CCN1CCC(O)(c2ccc(Cl)cc2)CC1)(c1ccccc1)c1ccccc1 [Loperamide]
fitness, B. subtilis 168 [4], main component drawn
Settings | first compound 37.5 µg/mL | first compound 75 µg/mL | first compound 150 µg/mL
partner 25 µg/mL | 0.598 | – | –
partner 50 µg/mL | – | 0.0219 | 0.0315
partner 100 µg/mL | 0.0325 | 0.0281 | 0.0237

main component drawn
Settings | Bliss interaction score
B. subtilis 168 [3] | -0.13
S. aureus DSM 20231 | -0.0677
S. aureus Newman | -0.0942
S. pneumoniae D39V [2] | 0.1

CO[C@@H]1[C@@H](OC(N)=O)[C@@H](O)[C@H](Oc2ccc3c(O)c(NC(=O)c4ccc(O)c(CC=C(C)C)c4)c(=O)oc3c2C)OC1(C)C [Novobiocin] + C[n+]1ccc(-c2cc[n+](C)cc2)cc1 [Paraquat]
fitness, B. subtilis 168 [4]
Settings | first compound 0.0125 µg/mL | first compound 0.025 µg/mL | first compound 0.05 µg/mL
partner 1.25 µg/mL | 0.937 | 0.942 | 0.976
partner 2.5 µg/mL | 0.939 | 0.956 | 0.999
partner 5 µg/mL | 0.855 | 0.832 | 0.912

fitness, B. subtilis 168 [4], one replicate
Settings | first compound 0.125 µg/mL | first compound 0.25 µg/mL | first compound 0.5 µg/mL
partner 1.25 µg/mL | 0.908 | ≥ 1 | 0.664
partner 2.5 µg/mL | 0.951 | 0.878 | 0.517
partner 5 µg/mL | 0.836 | 0.819 | 0.452

Settings | Bliss interaction score
B. subtilis 168 [3] | 0.0704
S. aureus DSM 20231 | 0.0456
S. aureus Newman | 0.0868
S. pneumoniae D39V [2] | 0.0614

CC[C@H](C)[C@H](N)C1=N[C@H](C(=O)N[C@@H](CC(C)C)C(=O)N[C@H](CCC(=O)O)C(=O)N[C@H](C(=O)N[C@H]2CCCCNC(=O)[C@H](CC(N)=O)NC(=O)[C@@H](CC(=O)O)NC(=O)[C@H](Cc3cnc[nH]3)NC(=O)[C@@H](Cc3ccccc3)NC(=O)[C@H]([C@@H](C)CC)NC(=O)[C@@H](CCCN)NC2=O)[C@@H](C)CC)CS1 [Bacitracin] + C[C@H]1COc2c(N3CCN(C)CC3)c(F)cc3c(=O)c(C(=O)O)cn1c23 [Levofloxacin]
fitness, B. subtilis 168 [4], one replicate, main component drawn
Settings | first compound 37.5 µg/mL | first compound 75 µg/mL | first compound 150 µg/mL
partner 0.001 µg/mL | 0.94 | 0.969 | 0.728
partner 0.0078 µg/mL | 0.842 | 0.844 | 0.439

fitness, B. subtilis 168 [4], main component drawn
Settings | partner 0.002 µg/mL | partner 0.0039 µg/mL | partner 0.0312 µg/mL | partner 0.0625 µg/mL | partner 0.125 µg/mL
first compound 37.5 µg/mL | 0.812 | 0.851 | 0.0268 | 0.0345 | 0.0392
first compound 75 µg/mL | 0.851 | 0.818 | 0.0206 | 0.0236 | 0.0256
first compound 150 µg/mL | 0.527 | 0.55 | 0.0178 | 0.0214 | 0.0173

main component drawn
Settings | Bliss interaction score
B. subtilis 168 [3] | 0.0288
S. aureus DSM 20231 | 0.034
S. aureus Newman | -0.043
S. pneumoniae D39V [2] | -0.072

CO[C@@H]1[C@@H](OC(N)=O)[C@@H](O)[C@H](Oc2ccc3c(O)c(NC(=O)c4ccc(O)c(CC=C(C)C)c4)c(=O)oc3c2C)OC1(C)C [Novobiocin] + CC1=C\[C@@H](O)CC(=O)Cc2nc(co2)C(=O)N2CCC=C2C(=O)O[C@H](C(C)C)[C@H](C)/C=C/C(=O)NC\C=C\1 [Virginiamycin M1]
fitness, B. subtilis 168 [4]
Settings | first compound 0.0125 µg/mL | first compound 0.025 µg/mL | first compound 0.05 µg/mL
partner 0.0625 µg/mL | 0.925 | 0.987 | 0.97
partner 0.125 µg/mL | 0.942 | 0.954 | 0.948
partner 0.25 µg/mL | 0.922 | 0.997 | 0.937

fitness, B. subtilis 168 [4], one replicate
Settings | first compound 0.125 µg/mL | first compound 0.25 µg/mL | first compound 0.5 µg/mL
partner 0.0625 µg/mL | 0.967 | 0.867 | 0.58
partner 0.125 µg/mL | 0.973 | 0.875 | 0.571
partner 0.25 µg/mL | 0.927 | 0.884 | 0.561

Settings | Bliss interaction score
B. subtilis 168 [3] | 0.0734
S. aureus DSM 20231 | 0.0833
S. aureus Newman | 0.0284
S. pneumoniae D39V [2] | 0.108
